Data on twelve molecules can be found in patent US6133322A, “Quinone derivatives for treating or preventing diseases associated with iron overload” (Institut National de la Sante et de la Recherche Medicale …, priority 1998, dated 2000).

The test system of one assay is complex II. Briefly: Complex II activity (succinate quinone DCPIP reductase) in freeze-thaw human heart homogenate. The assay is classed as biochemical. The following applies: for protection of complex II from iron induced damages (in words): succinate alone or 60 μM oxidized idebenone alone, FIG. 2C traces a, b. As to the method:
(§1) Human heart homogenates were used as an in vitro model to mimic the action of iron on mitochondrial ISPs and to test the potentially protective effect of various substances.
(§2) These homogenates were prepared under low iron-chelating conditions using the procedures described in Rustin P. et al., Biochemical and molecular investigations in respiratory chain deficiencies, Clin. Chim. Acta., 228, 35-51 (1994). Briefly, homogenate from frozen human heart was obtained surgically and prepared at ice-melting temperature in a 0.1 M Tris-HCI buffer (pH 7.3) by five strokes of hand-driven ground glass potter using the procedures described in Sanchez-Casis et al., Pathology of the heart in Friedreich's ataxia: review of the literature and report of one case, Can. J. Neurol. Sci., 3, 349-354 (1977). After filtering through a 90 μm nylon net, homogenate was sampled and frozen at -80° C. for enzyme studies.
(§3) The endogenous antioxidant defenses of heart mitochondria were neutralized by simple dilution, and free access of iron to its specific targets was achieved by freeze-thaw disrupting mitochondrial membranes.
(§4) The activities of two enzymes specifically targeted in FRDA, namely membrane-bound respiratory chain complex II and soluble (mitochondrial plus cytosolic) aconitases, were monitored under either low or high iron chelating conditions, in the presence of either reduced or oxidized iron. Complex II activity was measured on freeze-thaw heart homogenate as the dichlorophenolindophenol quinone reductase (DCPIP) (14). Aconitase activity in heart homogenate, corresponding to the combined mitochondrial and cytosolic enzyme activities, was measured by following the aconitate accumulation at 240 nm in the presence of citrate (6). All measurements were performed using a DW2000 Aminco Spectrophotometer (SLM, USA) in a 37° C. thermostated quartz cell, magnetically stirred, and containing 2 ml 0.1 M Tris-HCI buffer (pH 7.3).
(§5) Lipids peroxidation, complex II activity, and aconitase activity were monitored according to the methods of example 1 above.

The test system of the next assay is membrane lipids. Briefly: Iron-induced peroxidation of membrane lipids (cis-parinaric acid fluorescent probe) in human heart homogenates. The following applies: for peroxidation of membrane lipids (in words): FIG. 1A, iron form added to heart homogenate; for iron-induced damages of the membrane components (in words): in vitro system, summary. The assay is classed as biochemical. How it is done: as §1, §2, §3
Lipoperoxidation, a marker of non-specific peroxidative damages caused to membrane components, was monitored in the presence of either reduced or oxidized iron. Cis-parinaric acid (c-PN) was used as a fluorescent probe for lipoperoxidation (15,16). Measurements were performed in a 37° C. thermostated quartz cell, magnetically stirred, and containing 2 ml 0.1 M Tris-HCI buffer (pH 7.3) using a LS540B Spectrofluorimeter (Perkin-Elmer, England). Excitation: 318 nm; 5 nm band-pass Emission: 410 nm; 5 nm band-pass.
as §5

For another assay, the system named is aconitases. Briefly: Aconitase activity (aconitate accumulation at 240 nm in the presence of citrate) in human heart homogenate. The assay is classed as biochemical. The settings on record: for Iron-induced damages to: Aconitases: 5 nM Fe^2+ + 2 nM EDTA + 6 U of the one enzyme. How it is done: as §1, §2, §3, §4, §5
Aconitase was assayed after additional 3 min incubation with 250 μM desferrixamine. Trace b: Aconitase activity measured after 6 min incubation in Tris-HCI buffer containing 250 μM desferrioxamine in the absence of Fe^2+.

The subject of another assay is FRDA patients. Briefly: Idebenone administration in FRDA patients: cardiac hypertrophy and cerebellar ataxia. The assay is classed as in vivo, human. How it is done:
Based on the previous in vitro data and owing to the innocuousness of the drug, five children ranging in age from 71/2 to 14 years and two young adults, all diagnosed with FDRA, were given idebenone orally (5 mg/kg/day).
The results observed after a course of treatment ranging from about 4 to about 9 months of administration at this dosage, are shown in FIG. 3:
A) Follow up of heart ultrasound parameters in patients 1, 6 and 7. LV: left ventricle. Note the decreased septal and left ventricle posterior wall thickness;
B) changes in cerebellar ataxia noted by parents and uninformed teachers. ®: Unchanged; : decrease; 0: No initial involvement.

Setting [1] is: quinone reduced in situ by the respiratory chain (succinate).
[2] abbreviates: idebenone orally 5 mg/kg/day, about 4 to about 9 months.
The mark [3] stands for this setting: noted by the parents and uninformed teachers.
Setting [4] is: 5 nM Fe^2+ + 50 μM quinone, no succinate.
The mark [5] stands for this setting: 5 nM Fe^2+ + 10 mM succinate + 50 μM quinone.

As to ferrous chloride [Fe^2+], the “activity of complex II (in words)” value in the assay on complex II (1 min incubation with 5 nM reduced iron, FIG. 1B trace c) is reported as “strongly affected”. Also, the “peroxidation of membrane lipids (in words)” value in the assay with membrane lipids (listed as Reduced iron) is on record as “triggered an immediate peroxidation of the membrane lipid”; with membrane lipids (listed as reduced iron) it was “rapid lipoperoxidation”. Besides, the “aconitase activity (in words)” value in the assay on aconitases (10 min incubation with 5 nM reduced iron, FIG. 1C trace b) is recorded as “not affected”.

As to ferric chloride [Fe^3+], the results for the “peroxidation of membrane lipids (in words)” value in the assay with membrane lipids and in the assay with membrane lipids (listed as oxidized iron) were “no damage was observed” and “did not significantly after membrane lipids”, respectively.

As for `O=C(O)CN(CCN(CC(=O)O)CC(=O)O)CC(=O)O` [EDTA], the “protection of complex II activity (in words)” value in the assay with complex II (1 nM EDTA added to the iron-supplemented (5 nM reduced iron) medium, FIG. 1B trace b) was “fully protected”. Further, the “Iron-induced damages to: Lipids” value in the assay with membrane lipids (5 nM Fe^2+ + 2 nM EDTA) is reported as -2 ± 1%.

`COC1=C(OC)C(=O)C(CCCCCCCCCCO)=C(C)C1=O` [idebenone, 6-(10-hydroxydecyl)-2,3-dimethoxy-5-methyl-1,4-benzoquinone]: the “protection of membrane-anchored complex II against iron injury (in words)” value in the assay with complex II (setting [1]) is listed as “efficiently protected”. The “protection of complex II from iron induced damages (in words)” value with complex II is on record as “did not protect complex II”. For the same molecule, the “protection of complex II activity (in words)” value in the assay with complex II (succinate and 60 μM idebenone added simultaneously (20% of idebenone reduced), FIG. 2C trace c) is “full protection”. Moreover, the “Iron-induced damages to: Lipids” value in the assay on membrane lipids (5 nM Fe^2+ + 60 μM idebenone, no succinate) is reported as -63 ± 4%. Moreover, the “Iron-induced damages to: Lipids” value in the assay on membrane lipids (5 nM Fe^2+ + 10 mM succinate + 60 μM idebenone) is -1 ± 0.4%. The “protection against iron-induced lipoperoxidation (in words)” value in the assay on membrane lipids (60 μM oxidized idebenone, 3 min, no succinate, FIG. 2A trace a) is recorded as “No protection”. In addition, the “protection against iron-induced lipoperoxidation (in words)” value in the assay with membrane lipids (idebenone reduced in situ by succinate (about 2 μM reduced), FIG. 2A trace b) is reported as “significant protection”. The “protection against iron-induced lipoperoxidation (in words)” value in the assay with membrane lipids (longer incubation with succinate (12 μM reduced; 20% of total idebenone), FIG. 2A trace c) is “enhanced”. Moreover, in the assay with membrane lipids (setting [1]), the “protection of membrane lipids against iron injury (in words)” value is on record as “efficiently protected”. In addition, the “prevention of the loss of aconitase activity induced by water-soluble chelators in the presence of reduced iron (in words)” value in the assay on aconitases (Table 2) is “neither succinate nor idebenone nor succinate+idebenone prevents the loss of aconitase activity”. Moreover, the “myocardial hypertrophy (in words)” value in the assay with FRDA patients (4 to 9 month regime, five FRDA patients) is “significant decrease”. Besides, the “deep tendon reflexes (in words)” value with FRDA patients (after a 9 month course) was “have not reappeared”. In the assay with FRDA patients (setting [2]), the “improvement of asynergia/dysmetria (finger-nose test) (patients improved/total)” value was 3/5, the “improvement of delicate movements (handwriting) (patients improved/total)” value is on record as 4/5, the “improvement of gait ataxia (patients improved/total)” value was 2/5 and the “improvement of muscle strength (patients improved/total)” value is given as 5/5. In addition, in the assay on FRDA patients (setting [3]), the “general condition (in words)” value is “improvement” and the “hand clumsiness (in words)” value is listed as “decrease”. Besides, in the assay with FRDA patients (ultrasound, three patients), the “decrease of left ventricle mass index” value was -21 to -32%, the “reduction of left ventricle wall” value is listed as -8 to -20% and the “reduction of septal thickness” value is -31 to -36%.

For the molecule `O=C(O)CCC(=O)O` [succinate], the “protection of complex II from iron induced damages (in words)” value in the assay on complex II was “did not protect complex II”. Besides, the “Iron-induced damages to: Lipids” value in the assay with membrane lipids (5 nM Fe^2+ + 10 mM succinate) is recorded as -58 ± 3%. Besides, the “protection of membrane lipids against iron-induced peroxidation (in words)” value in the assay on membrane lipids (succinate alone) is reported as “failed to protect”.

Consider `N[C@@H](CCC(=O)N[C@@H](CS)C(=O)NCC(=O)O)C(=O)O` [glutathione], for which the “iron-induced damages of the membrane components (in words)” value (from here on “iron-induced damages … (in words)”) in the assay with membrane lipids is given as “enhancing these damages”.

For `COC1=C(OC)C(=O)C(CC=C(C)CCC=C(C)CCC=C(C)CCC=C(C)CCC=C(C)CCC=C(C)CCC=C(C)CCC=C(C)CCC=C(C)CCC=C(C)C)=C(C)C1=O` [CoQ10], the “Iron-induced damages to: Lipids” value in the assay with membrane lipids (setting [4]) is -66 ± 2%; with membrane lipids (setting [5]), -1 ± 0.4%. The “protection against iron-induced lipoperoxidation (in words)” value is on record as “full protection” in the assay on membrane lipids (8 μM CoQ10 reduced in situ by 3 min incubation with 10 mM succinate, FIG. 2B trace b) and “did not protect from iron-induced lipoperoxidation” with membrane lipids (8 μM oxidized CoQ10, absence of succinate, FIG. 2B trace a). The “decrease of aconitase activity” value in the assay with aconitases (3 min with 5 nM Fe^2+ + 8 μM CoQ10 without succinate, then 3 min 250 μM desferrioxamine, FIG. 2D trace c) came to 77%.

As to `CC(=O)N(O)CCCCCNC(=O)CCC(=O)N(O)CCCCCNC(=O)CCC(=O)N(O)CCCCCN` [desferrioxamine], the “Iron-induced damages to: Lipids” value with membrane lipids (5 nM Fe^2+ + 120 μM desferrioxamine) came out at 0 ± 1%. The “decrease in aconitase activity (in words)” value with aconitases (200 μM desferrioxamine alone, 6 min pre-incubation, no Fe^2+, FIG. 2D trace b) is recorded as “no decrease in enzyme activity”. In the assay on aconitases (250 μM desferrioxamine + 5 nM reduced iron, FIG. 1C trace d), the “loss of aconitase activity” value was 80%. The “inhibition of aconitase activity (in words)” value in the assay with aconitases (desferrioxamine in the absence of iron, FIG. 1C trace c) is listed as “No inhibition of aconitase activity”.

In the case of “SOD: superoxide dismutase, water-soluble antioxidant enzyme”, the “iron-induced damages … (in words)” value in the assay with membrane lipids is listed as “unable to prevent”. For the same molecule, the “Iron-induced damages to: Aconitases” value in the assay with aconitases was -75 ± 1%.

With `O=C1O[C@H]([C@@H](O)CO)C(O)=C1O` [ascorbate], the “iron-induced damages … (in words)” value in the assay on membrane lipids is on record as “enhancing these damages”.

`COC1=C(OC)C(=O)C(CC=C(C)CCC=C(C)CCC=C(C)CCC=C(C)C)=C(C)C1=O` [CoQ4]: the “Iron-induced damages to: Lipids” value in the assay with membrane lipids (setting [4]) was -74 ± 3%; with membrane lipids (setting [5]), -1 ± 1%.

B1: catalase: water-soluble antioxidant enzyme (protein, UniProt P04040 2-527, looked up)
Catalase: ADSRDPASDQMQHWKEQRAAQKADVLTTGAGNPVGDKLNVITVGPRGPLLVQDVVFTDEMAHFDRERIPERVVHAKGAGAFGYFEVTHDITKYSKAKVFEHIGKKTPIAVRFSTVAGESGSADTVRDPRGFAVKFYTEDGNWDLVGNNTPIFFIRDPILFPSFIHSQKRNPQTHLKDPDMVWDFWSLRPESLHQVSFLFSDRGIPDGHRHMNGYGSHTFKLVNANGEAVYCKFHYKTDQGIKNLSVEDAARLSQEDPDYGIRDLFNAIATGKYPSWTFYIQVMTFNQAETFPFNPFDLTKVWPHKDYPLIPVGKLVLNRNPVNYFAEVEQIAFDPSNMPPGIEASPDKMLQGRLFAYPDTHRHRLGPNYLHIPVNCPYRARVANYQRDGPMCMQDNQGGAPNYYPNSFGAPEQQPSALEHSIQYSGEVRRFNTANDDNVTQVRAFYVNVLNEEQRKRLCENIAGHLKDAQIFIQKKAVKNFTEVHPDYGSHIQALLDKYNAEKPKNAIHTFVQSGSHLAAREKANL
Take B1: the “iron-induced damages … (in words)” value in the assay with membrane lipids is given as “unable to prevent”. The “Iron-induced damages to: Aconitases” value in the assay with aconitases is on record as -46 ± 2%.
